Patent US20260284041A1, “PREVENTIVE OR THERAPEUTIC AGENT FOR NEURODEGENERATIVE DISEASE” (MEDILABO RFP, INC., priority 2023, published 2026)
In brackets after ≈: the same amount, converted by molar mass.

Key:
[1] = tested on: C9orf72 HRE-derived RNAs; conditions: in vitro; cited from earlier work
[2] = tested on: PKR; conditions: reported in NPL 31; cited from earlier work
[3] = tested on: FTD/ALS model mice; assay: Immunohistochemical analysis of brain sections (Test Example 2); type: in vivo, mouse; conditions: single agents 0.04 mg/day, combination 0.02+0.02 mg/day, nasal 1 month
Procedure: (§1) Age-matched non-Tg […] mates received only CMC.
After the behavioral test, each group was divided into two groups: one for immunohistochemical analysis and the other for future biochemical analysis. Immunohistochemical staining was performed as described above. For staining of double-stranded RNA-dependent protein kinase (PKR), phosphorylated TDP-43, synaptophysin, sections were boiled in 10 mM citrate buffer solution (pH6) for 30 min to expose the antigens. The sections were blocked overnight with 10% calf serum, and then the resultant sections were stained with antibodies for DNA/RNA G-quadruplex (BG4; Absolute antibody, Cleveland, UK), phospho-PKR (Thr446) (MilliporeSigma, Burlington, MA, USA), poly-GA, poly-GP (Cosmo Bio Co., Ltd., Tokyo, Japan), pSer409/410-TDP-43 (Cosmo Bio Co., Ltd.), and synaptophysin (SVP-38; Sigma-Aldrich, St. Luis, MO, USA). Only synaptophysin was stained with a biotin-labeled secondary antibody (Vector Laboratories, Burlingame, CA, USA), a horseradish peroxidase (HRP)-labeled avidin-biotin complex (Vector Laboratories), HRP substrate, diaminobenzidine (DAB), or an FITC-labeled secondary antibody (The Jackson Laboratory). […] Neuropathologies were evaluated by measuring the staining intensity or area or by counting positive puncta or cells in a constant area in each photograph using NIH ImageJ software.

[4] = tested on: FTD/ALS model mice; assay: Morris water maze test after nasal rifampicin and/or resveratrol (Test Example 2); type: in vivo, mouse; conditions: 1 month, 7- to 8-month-old mice, single agents 0.04 mg/day, combination 0.02 mg + 0.02 mg/day, FIG. 10
Text: FVB/NJ-Tg(C9orf72)500Lpwr/J mice (FTD/ALS model mice) were purchased from The Jackson Laboratory (Bar Harbor, ME, USA). The mouse strain was generated as a model for the C9orf72-associated FTD/ALS expressing the human C9orf72 gene with about 500 hexanucleotide (GGGGCC) repeats using a bacterial artificial chromosome (BAC) vector. Transgenic (Tg) mice were crossed with wild-type FVB/NJcl mice, and the transgene was maintained as a heterozygote at our animal facility.
as §1
After administration for one month, the cognitive function of the mice was assessed in the Morris water maze test as described above.

[5] = cited from earlier work
[6] = tested on: BDNF; conditions: stated in discussion, no method given; cited from earlier work
[7] = tested on: FTD/ALS model mice (C9-500 mice); assay: Morris water maze test after nasal rifampicin (Test Example 1); type: in vivo, mouse; conditions: nasal 0.1 mg/day for 1 month; Tg mice 4.5 to 5 months old at start; vs CMC-treated Tg (p=0.0271, FIG. 4)
Text: FVB/NJ-Tg(C9orf72)500Lpwr/J mice were purchased from The Jackson Laboratory (Bar Harbor, ME, USA). The mouse strain was generated as a model for the C9orf72-linked FTD/ALS expressing the human C9orf72 gene with 500 hexanucleotide (GGGGCC) repeats (hereinafter, it is also described as “FTD/ALS model mice”) using a bacterial artificial chromosome (BAC) vector. Transgenic (Tg) mice were crossed with wild-type FVB/NJcl mice, and the transgene was maintained as a heterozygote at the animal facility in our company.
The cognitive function of the mice was assessed in a Morris water maze test at the age of 4.5 months, and the motor function of the mice was assessed in the rotarod and inverted screen tests at the age of 4.5 months and at the age of 12 months in an above-described manner.
(§2) 4-and-a half to 5-month-old FTD/ALS model mice were divided into two groups. […] Non-Tg littermates were treated with CMC alone. […] After the behavioral test, each group was divided into two groups: one group for immunohistochemical analysis and the other group for future biochemical analysis. For immunohistochemical analysis, brain sections were prepared as described above, while for biochemical analysis, whole brains were removed and frozen at −80° C. until use.

[8] = tested on: phospho-PKR (Thr446); assay: Immunohistochemical studies of phosphorylated PKR (Test Example 1); type: in vivo, mouse; conditions: PFC and MC; nasal 0.1 mg/day for 1 month; FIG. 8B
Procedure: as §2

[9] = tested on: (GGGGCC)4 oligonucleotides; assay: Gel shift assay for G-quadruplex; type: biochemical; conditions: 1 mM rifampicin, 5 μM DNA, 100 mM KCl; FIG. 8A
Procedure: The gel shift assay to detect G-quadruplex formation was performed. Sense (GGGGCC)4, antisense (GGCCCC)4, and Control (ATGC)6 oligonucleotides were synthesized and solubilized to 100 μM in 0.89 M of Tris-borate buffer, pH8.3 containing 0.02 M of EDTA (TBE). […] The mixtures were incubated at 98° C. for 3 min and slowly cooled to room temperature. The samples were mixed with Blue/Orange Loading Dye (Promega Corporation, Madison, WI, USA) and subjected to native PAGE with 20% polyacrylamide gel (Novex TBE Gels, Invitrogen, Carlsbad, CA, USA) and TBE running buffer containing 50 mM KCl. The gels were stained with SYBR Gold nucleic acid gel stain (Invitrogen) for 10 min, and images were acquired using an ImageQuant LAS 500 image analyzer (GE Healthcare, Hino, Japan).

[10] = tested on: FTD/ALS model mice (C9-500 mice); assay: Double staining for RNA foci and cytoplasmic inclusions (Test Example 1); type: in vivo, mouse; conditions: PFC and MC; nasal 0.1 mg/day for 1 month; FIG. 6
Text: To examine the formation of nuclear and cytoplasmic inclusions, the sections were double stained with antibodies to G-quadruplex and hnRNP H1 (Proteintech, Rosemont, IL, USA) without pretreatment for RNA foci, and pSer409/410-TDP-43 and amyloidogenic protein oligomers (F11G3; Sigma-Aldrich) after pretreatment at pH6 for TDP-43 oligomer inclusions. For DPR inclusions, the sections were double-stained with antibodies to poly-GA, poly-GP, poly-GR, and SQSTM1/p62 (A-6; Santa Cruz Biotechnology, Dallas, TX, USA) without pretreatment. After staining, FITC- and rhodamine-labeled secondary antibodies (Jackson Laboratory) were used. The specimens were then treated with TrueBlack Plus Lipofuscin (Biotium, Fremont, CA, USA) to quench the autofluorescence and mounted using a Vectashield vibrance antifade mounting medium with DAPI (Vector Laboratories). Images of the stained sections were taken with a BZ-X800 fluorescence microscope, and cells having inclusion bodies were counted in a certain area.
as §2

CC(=O)O.N [ammonium acetate]
RNA gelation and RNA foci formation [1]: inhibited

COc1cccc2c1C(=O)c1c(O)c3c(c(O)c1C2=O)C[C@@](O)(C(=O)CO)C[C@@H]3O[C@H]1C[C@H](N)[C@H](O)[C@H](C)O1 [doxorubicin]
RNA gelation and RNA foci formation [1]: inhibited

CN(C)C(=N)N=C(N)N [metformin]
RAN translation / PKR phosphorylation and phenotype of C9-500 mice [2]: suppress RAN translation by suppressing PKR phosphorylation

Oc1ccc(/C=C/c2cc(O)cc(O)c2)cc1 [resveratrol, 3,5,4′-trihydroxy-trans-stilbene]
synaptophysin levels (synaptic loss) ([3]; hippocampus CA2-3 region and dentate gyrus (DG), FIG. 11): significantly restored | levels of G-quadruplex ([3]; prefrontal cortex, FIG. 12): significantly reduced | levels of phosphorylated PKR ([3]; prefrontal cortex, FIG. 13): significantly reduced | levels of poly-GA and poly-GP ([3]; prefrontal cortex, FIG. 14): significantly reduced | levels of phosphorylated TDP-43 ([3]; prefrontal cortex, FIG. 15): significantly reduced | cognitive function, Morris water maze [4]: significantly improved | solubility in water [5]: 30 µg/mL (≈ 131 µM) | expression of BDNF in the mouse brains [6]: elicited

CO[C@H]1/C=C/O[C@@]2(C)Oc3c(C)c(O)c4c(O)c(c(/C=N/N5CCN(C)CC5)c(O)c4c3C2=O)NC(=O)/C(C)=C\C=C\[C@H](C)[C@H](O)[C@@H](C)[C@@H](O)[C@@H](C)[C@H](OC(C)=O)[C@@H]1C [rifampicin, 3-(4-Methylpiperazinyliminomethyl)rifamycin SV]
memory performance (cognitive function), water maze test [7]: significantly improved | levels of phosphorylated PKR [8]: significantly attenuated | cognitive function, Morris water maze [4]: improved the cognitive function in the mice, but the effect was incomplete and not significant | inhibition of G-quadruplex formation [9]: failed to inhibit | DPR cytoplasmic inclusions (DPRs and p62 double positive) [10]: significantly attenuated | TDP-43 oligomer cytoplasmic inclusions (pTDP-43 and F11G3 double positive) [10]: significantly attenuated | formation of RNA foci (G-quadruplex and hnRNP H double positive) [10]: significantly attenuated
